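Protocol summary: plate cells (96-well), add compound at 5 concentrations, incubate 48 h, interpolate endpoints linearly. GI50: concentration for 50% inhibition of growth.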 Activity calls are given as the source filed them. Rule as the data show it: active = GI50 up to about 1.1 µM and inactive = higher. Non-standard residues stand in square brackets, D forms with d. Residues, ends and D or L forms follow the SMILES beside them. ξ: configuration not given here. *: point of attachment. dThr(3ξ) = CC(O)[C@@H](N)C(=O)O; dNMeL = CN[C@H](CC(C)C)C(=O)O; OBn = c1ccc(CO*)cc1; ξLac = CC(O)C(=O)O
Columns and labels:
Test in all cases: NCI anticancer screen, dose series, 48 h
Hs-578T = test system: Hs-578T
SR = test system: SR
LOX IMVI = test system: LOX IMVI
NCI-H460 = test system: NCI-H460
SNB-75 = test system: SNB-75
SF-268 = test system: SF-268
RXF 393 = test system: RXF 393
SK-MEL-5 = test system: SK-MEL-5
NCI-H226 = test system: NCI-H226
SK-MEL-28 = test system: SK-MEL-28
COLO 205 = test system: COLO 205
A498 = test system: A498
HCC 2998 = test system: HCC 2998
MDA-N = test system: MDA-N
T47D = test system: T47D
SN12C = test system: SN12C
TK-10 = test system: TK-10
K562 = test system: K562
OVCAR-8 = test system: OVCAR-8
OVCAR-4 = test system: OVCAR-4
MDA-MB-435 = test system: MDA-MB-435
PC-3 = test system: PC-3
NCI-H522 = test system: NCI-H522
MCF7 = test system: MCF7
HCT-116 = test system: HCT-116
IGROV-1 = test system: IGROV-1
NCI/ADR-RES = test system: NCI/ADR-RES
UACC-62 = test system: UACC-62
CAKI-1 = test system: CAKI-1
KM12 = test system: KM12
SF-539 = test system: SF-539
A549 = test system: A549
SNB-19 = test system: SNB-19
ACHN = test system: ACHN
SK-MEL-2 = test system: SK-MEL-2
M14 = test system: M14
Malme-3M = test system: Malme-3M
UACC-257 = test system: UACC-257
NCI-H23 = test system: NCI-H23
CCRF-CEM = test system: CCRF-CEM
EKVX = test system: EKVX
HCT-15 = test system: HCT-15
HOP-62 = test system: HOP-62
MDA-MB-231 = test system: MDA-MB-231
RPMI-8226 = test system: RPMI-8226
OVCAR-3 = test system: OVCAR-3
UO-31 = test system: UO-31
U-251 = test system: U-251
SW-620 = test system: SW-620
HOP-92 = test system: HOP-92
SK-OV-3 = test system: SK-OV-3
SF-295 = test system: SF-295
OVCAR-5 = test system: OVCAR-5
MOLT-4 = test system: MOLT-4
HL-60 = test system: HL-60
HT-29 = test system: HT-29
DU-145 = test system: DU-145
BT-549 = test system: BT-549
786-0 = test system: 786-0

## CCCCCCCCCCCCN(CC(O)C(O)C(OC1OC(CO)C(O)C(O)C1O)C(O)CO)C(=O)CCCCCCCCCCC (stereo not drawn)
Hs-578T
  GI50: 26.3 µM (inactive)
SR
  GI50: 33.1 µM (inactive)
LOX IMVI
  GI50: 21.3 µM (inactive)
NCI-H460
  GI50: 20.5 µM (inactive)
SNB-75
  GI50: 18.5 µM (inactive)
SF-268
  GI50: 20.1 µM (inactive)
RXF 393
  GI50: 26.9 µM (inactive)
SK-MEL-5
  GI50: 17.5 µM (inactive)
NCI-H226
  GI50: 23.4 µM (inactive)
SK-MEL-28
  GI50: 17.5 µM (inactive)
COLO 205
  GI50: 20.4 µM (inactive)
A498
  GI50: 24.7 µM (inactive)
HCC 2998
  GI50: 18.4 µM (inactive)
MDA-N
  GI50: 21 µM (inactive)
T47D
  GI50: 28.1 µM (inactive)
SN12C
  GI50: 22.1 µM (inactive)
TK-10
  GI50: 16.3 µM (inactive)
K562
  GI50: 19 µM (inactive)
OVCAR-8
  GI50: 23 µM (inactive)
OVCAR-4
  GI50: 21.4 µM (inactive)
MDA-MB-435
  GI50: 16.8 µM (inactive)
PC-3
  GI50: 25.2 µM (inactive)
NCI-H522
  GI50: 24.1 µM (inactive)
MCF7
  GI50: 28.1 µM (inactive)
HCT-116
  GI50: 19.5 µM (inactive)
IGROV-1
  GI50: 19.9 µM (inactive)
NCI/ADR-RES
  GI50: 23.8 µM (inactive)
UACC-62
  GI50: 20.2 µM (inactive)
CAKI-1
  GI50: 19 µM (inactive)
KM12
  GI50: 20.2 µM (inactive)
SF-539
  GI50: 39.8 µM (inactive)
A549
  GI50: 23.6 µM (inactive)
SNB-19
  GI50: 17.9 µM (inactive)
ACHN
  GI50: 16.9 µM (inactive)
SK-MEL-2
  GI50: 23 µM (inactive)
M14
  GI50: 19.5 µM (inactive)
Malme-3M
  GI50: 18.5 µM (inactive)
UACC-257
  GI50: 20.9 µM (inactive)
NCI-H23
  GI50: 21.4 µM (inactive)
CCRF-CEM
  GI50: 31.9 µM (inactive)
EKVX
  GI50: 18.8 µM (inactive)
HCT-15
  GI50: 18.6 µM
HOP-62
  GI50: 25.8 µM (inactive)
MDA-MB-231
  GI50: 22.6 µM (inactive)
RPMI-8226
  GI50: 29 µM (inactive)
OVCAR-3
  GI50: 21.8 µM (inactive)
UO-31
  GI50: 21.5 µM (inactive)
U-251
  GI50: 18.6 µM (inactive)
SW-620
  GI50: 19 µM (inactive)
HOP-92
  GI50: 21.9 µM (inactive)
SK-OV-3
  GI50: 22.3 µM (inactive)
SF-295
  GI50: 19 µM (inactive)
OVCAR-5
  GI50: 41 µM (inactive)
MOLT-4
  GI50: 25.1 µM (inactive)
HL-60
  GI50: 33.7 µM (inactive)
HT-29
  GI50: 19 µM (inactive)
DU-145
  GI50: 20.6 µM (inactive)
BT-549
  GI50: 20.4 µM (inactive)
786-0
  GI50: 19 µM (inactive)

## CC(=O)OC(C)[C@@H](NC(=O)[C@@H](CC(C)C)N(C)C(=O)[C@@H]1CCCN1C(=O)C(C)O)C(=O)OCc1ccccc1 (stereo partly drawn) (H-[ξLac]P[dNMeL][dThr(3ξ)](Ac)-OBn)
Hs-578T
  GI50: > 100 µM (inactive)
SR
  GI50: > 100 µM (inactive)
LOX IMVI
  GI50: > 100 µM (inactive)
NCI-H460
  GI50: > 100 µM (inactive)
SNB-75
  GI50: 81.7 µM (inactive)
SF-268
  GI50: > 100 µM (inactive)
RXF 393
  GI50: > 100 µM (inactive)
SK-MEL-5
  GI50: > 100 µM (inactive)
NCI-H226
  GI50: > 100 µM (inactive)
SK-MEL-28
  GI50: > 100 µM (inactive)
COLO 205
  GI50: > 100 µM (inactive)
A498
  GI50: > 100 µM (inactive)
HCC 2998
  GI50: > 100 µM (inactive)
MDA-N
  GI50: > 100 µM (inactive)
T47D
  GI50: > 100 µM (inactive)
SN12C
  GI50: > 100 µM (inactive)
TK-10
  GI50: > 100 µM (inactive)
K562
  GI50: > 100 µM (inactive)
OVCAR-8
  GI50: > 100 µM (inactive)
OVCAR-4
  GI50: 62.4 µM (inactive)
MDA-MB-435
  GI50: > 100 µM (inactive)
PC-3
  GI50: > 100 µM (inactive)
NCI-H522
  GI50: > 100 µM (inactive)
MCF7
  GI50: > 100 µM (inactive)
HCT-116
  GI50: > 100 µM (inactive)
IGROV-1
  GI50: > 100 µM (inactive)
NCI/ADR-RES
  GI50: > 100 µM (inactive)
UACC-62
  GI50: > 100 µM (inactive)
CAKI-1
  GI50: > 100 µM (inactive)
KM12
  GI50: > 100 µM (inactive)
SF-539
  GI50: > 100 µM (inactive)
A549
  GI50: > 100 µM (inactive)
SNB-19
  GI50: > 100 µM (inactive)
ACHN
  GI50: > 100 µM (inactive)
SK-MEL-2
  GI50: > 100 µM (inactive)
M14
  GI50: > 100 µM (inactive)
Malme-3M
  GI50: > 100 µM (inactive)
UACC-257
  GI50: > 100 µM (inactive)
NCI-H23
  GI50: > 100 µM (inactive)
CCRF-CEM
  GI50: > 100 µM (inactive)
EKVX
  GI50: > 100 µM (inactive)
HCT-15
  GI50: > 100 µM
HOP-62
  GI50: > 100 µM (inactive)
MDA-MB-231
  GI50: > 100 µM (inactive)
RPMI-8226
  GI50: > 100 µM (inactive)
OVCAR-3
  GI50: > 100 µM (inactive)
UO-31
  GI50: > 100 µM (inactive)
U-251
  GI50: > 100 µM (inactive)
SW-620
  GI50: > 100 µM (inactive)
HOP-92
  GI50: > 100 µM (inactive)
SK-OV-3
  GI50: > 100 µM (inactive)
SF-295
  GI50: > 100 µM (inactive)
OVCAR-5
  GI50: > 100 µM (inactive)
MOLT-4
  GI50: > 100 µM (inactive)
HL-60
  GI50: > 100 µM (inactive)
HT-29
  GI50: > 100 µM (inactive)
DU-145
  GI50: > 100 µM (inactive)
BT-549
  GI50: > 100 µM (inactive)
786-0
  GI50: > 100 µM (inactive)
